According to US20230081426A1, “COMPOUNDS AND METHODS FOR KRAS MODULATION AND INDICATIONS THEREFOR” (Plexxikon Inc., priority 2020, published 2023):

Legend:
[1] = molecular target: T1, G12D-mutant human KRAS (amino acid residues 1-188) (Homo sapiens, UniProt P01116, G12D); test: KRAS Binding Disruption Assay (AlphaScreen; biotinylated KRpep-2d analogue or RAF1-RBD), G12D; conditions: KRAS G12D; geometric mean; read-out: KRAS GMean IC50 (uM) MUTATION: G12D
T1 construct: G12D or G12C-mutant human KRAS (amino acid residues 1-188) with FLAG tag; made in house; host or cells: E. coli
Outline: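 Compounds are titrated against 5-20 nM mutant KRAS and 5-20 nM of either a biotinylated KRpep-2d analogue or RAF1-RBD, incubated 1 h at 25° C. Disruption is detected as reduced Alpha signal after 1 h with donor and acceptor beads at 10 μg/mL.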

[2] = molecular target: T2, G12V-mutant human KRAS (amino acid residues 1-188) (Homo sapiens, UniProt P01116, G12V); test: KRAS Binding Competition Assay (AlphaScreen; biotinylated KRpep-2d analogue), G12V; conditions: geometric mean, read-out: KRAS GMean IC50 (uM) MUTATION: G12V
T2 construct: G12V-mutant human KRAS (amino acid residues 1-188) with FLAG tag was purified from E. coli; made in house; host or cells: E. coli

Structure (SMILES)	IC50 [1] [µM]	IC50 [2] [µM]
CN(C)CCNS(=O)(=O)N1[C@@H]2CC[C@H]1CN(c1nc(OCC34CCCN3CCC4)nc3c(F)c(-c4cc(O)cc5ccccc45)ccc13)C2 [P-0280, (1R,5S)-N-(2-(dimethylamino)ethyl)-3-(8-fluoro-7-(3-hydroxynaphthalen-1-yl)-2-((tetrahydro-1H-pyrrolizin-7a(5H)-yl)methoxy)quinazolin-4-yl)-3,8-diazabicyclo[3.2.1]octane-8-sulfonamide]	0.0001 to 10	0.0001 to 10
CN1CCN(CCNS(=O)(=O)N2[C@@H]3CC[C@H]2CN(c2nc(OCC45CCCN4CCC5)nc4c(F)c(-c5cc(O)cc6ccccc56)ccc24)C3)CC1 [P-0281, (1R,5S)-3-(8-fluoro-7-(3-hydroxynaphthalen-1-yl)-2-((tetrahydro-1H-pyrrolizin-7a(5H)-yl)methoxy)quinazolin-4-yl)-N-(2-(4-methylpiperazin-1-yl)ethyl)-3,8-diazabicyclo[3.2.1]octane-8-sulfonamide]	0.0001 to 10	0.0001 to 10
CN1CCC[C@H]1COc1nc(N2[C@@H]3CC[C@H]2CNC3)c2ccc(-c3cccc4cccc(CO)c34)cc2n1 [P-0283, (8-(4-((1R,5S)-3,8-diazabicyclo[3.2.1]octan-8-yl)-2-(((S)-1-methylpyrrolidin-2-yl)methoxy)quinazolin-7-yl)naphthalen-1-yl)methanol]	10 to 100	10 to 100
O=S(=O)(N[C@@H]1CCNC1)N1[C@@H]2CC[C@H]1CN(c1nc(OCC34CCCN3CCC4)nc3c(F)c(-c4cc(O)cc5ccccc45)ccc13)C2 [P-0284, (1R,5S)-3-(8-fluoro-7-(3-hydroxynaphthalen-1-yl)-2-((tetrahydro-1H-pyrrolizin-7a(5H)-yl)methoxy)quinazolin-4-yl)-N-((R)-pyrrolidin-3-yl)-3,8-diazabicyclo[3.2.1]octane-8-sulfonamide]	0.0001 to 10	0.0001 to 10
CN1CCC[C@H]1COc1nc(N2[C@@H]3CC[C@H]2CNC3)c2ccc(-c3cccc(O)c3)cc2n1 [P-0285, 3-(4-((1R,5S)-3,8-diazabicyclo[3.2.1]octan-8-yl)-2-(((S)-1-methylpyrrolidin-2-yl)methoxy)quinazolin-7-yl)phenol]	100 to 1000	100 to 1000
CN(C)CCCS(=O)(=O)N1[C@@H]2CC[C@H]1CN(c1nc(OCC34CCCN3CCC4)nc3c(F)c(-c4cc(O)cc5ccccc45)ccc13)C2 [P-0287, 4-(4-((1R,5S)-8-((3-(dimethylamino)propyl)sulfonyl)-3,8-diazabicyclo[3.2.1]octan-3-yl)-8-fluoro-2-((tetrahydro-1H-pyrrolizin-7a(5H)-yl)methoxy)quinazolin-7-yl)naphthalen-2-ol]	0.0001 to 10	0.0001 to 10
CN1CCC[C@H]1COc1nc(N2[C@@H]3CC[C@H]2CNC3)c2ccc(-c3c(F)ccc(N)c3F)cc2n1 [P-0288, 3-(4-((1R,5S)-3,8-diazabicyclo[3.2.1]octan-8-yl)-2-(((S)-1-methylpyrrolidin-2-yl)methoxy)quinazolin-7-yl)-2,4-difluoroaniline]	10 to 100	10 to 100
CN1CCC[C@H]1COc1nc(N2C[C@H]3CC[C@@H](C2)N3)c2ccc(Nc3n[nH]c4ccccc34)cc2n1 [P-0289, 4-((1R,5S)-3,8-diazabicyclo[3.2.1]octan-3-yl)-N-(1H-indazol-3-yl)-2-(((S)-1-methylpyrrolidin-2-yl)methoxy)quinazolin-7-amine]	10 to 100	10 to 100
CN1CCC[C@H]1COc1nc(N2[C@@H]3CC[C@H]2CNC3)c2ccc(-c3c(O)cccc3Cl)cc2n1 [P-0290, 2-(4-((1R,5S)-3,8-diazabicyclo[3.2.1]octan-8-yl)-2-(((S)-1-methylpyrrolidin-2-yl)methoxy)quinazolin-7-yl)-3-chlorophenol]	10 to 100	10 to 100
CN1CCC[C@H]1COc1nc(N2[C@@H]3CC[C@H]2CN(C(=O)CC2SC(=O)NC2=O)C3)c2ccc(-c3cc(O)cc4ccccc34)cc2n1 (stereo partly drawn) [P-0292, 5-(2-((1R,5S)-8-(7-(3-hydroxynaphthalen-1-yl)-2-(((S)-1-methylpyrrolidin-2-yl)methoxy)quinazolin-4-yl)-3,8-diazabicyclo[3.2.1]octan-3-yl)-2-oxoethyl)thiazolidine-2,4-dione]	10 to 100	10 to 100
CN1CCC[C@H]1COc1nc(N2C[C@H]3CC[C@@H](C2)N3)c2ccc(-c3c[nH]c4cccc(Cl)c34)c(F)c2n1 [P-0294, 4-((1R,5S)-3,8-diazabicyclo[3.2.1]octan-3-yl)-7-(4-chloro-1H-indol-3-yl)-8-fluoro-2-(((S)-1-methylpyrrolidin-2-yl)methoxy)quinazoline]	10 to 100	10 to 100
CN1CCC[C@H]1COc1nc(N2C[C@H]3CC[C@@H](C2)N3)c2ccc(-c3c[nH]c4ccc(Cl)cc34)c(F)c2n1 [P-0295, 4-((1R,5S)-3,8-diazabicyclo[3.2.1]octan-3-yl)-7-(5-chloro-1H-indol-3-yl)-8-fluoro-2-(((S)-1-methylpyrrolidin-2-yl)methoxy)quinazoline]	0.0001 to 10	100 to 1000
CN1CC[C@@H](NC(=O)N2CC3CCCC2CN3c2nc(OC[C@@H]3CCCN3C)nc3c(F)c(-c4cc(O)cc5ccccc45)ccc23)C1 (stereo partly drawn) [P-0297, 8-(8-fluoro-7-(3-hydroxynaphthalen-1-yl)-2-(((S)-1-methylpyrrolidin-2-yl)methoxy)quinazolin-4-yl)-N-((R)-1-methylpyrrolidin-3-yl)-6,8-diazabicyclo[3.2.2]nonane-6-carboxamide]	0.0001 to 10	0.0001 to 10
CN1CCC[C@H]1COc1nc(N2CC3CCCC2CN3C(=O)NC2CCOC2)c2ccc(-c3cc(O)cc4ccccc34)c(F)c2n1 (stereo partly drawn) [P-0298, 8-(8-fluoro-7-(3-hydroxynaphthalen-1-yl)-2-(((S)-1-methylpyrrolidin-2-yl)methoxy)quinazolin-4-yl)-N-(tetrahydrofuran-3-yl)-6,8-diazabicyclo[3.2.2]nonane-6-carboxamide]	0.0001 to 10	0.0001 to 10
CN1CCC[C@H]1COc1nc(N2[C@@H]3CC[C@H]2CNC3)c2ccc(-c3c(N)cccc3Cl)cc2n1 [P-0300, 2-(4-((1R,5S)-3,8-diazabicyclo[3.2.1]octan-8-yl)-2-(((S)-1-methylpyrrolidin-2-yl)methoxy)quinazolin-7-yl)-3-chloroaniline]	10 to 100	10 to 100
CN1CCC[C@H]1COc1nc(N2C[C@H]3CC[C@@H](C2)N3)c2cc(F)c(-c3c(O)cccc3F)c(F)c2n1 [P-0302, 2-(4-((1R,5S)-3,8-diazabicyclo[3.2.1]octan-3-yl)-6,8-difluoro-2-(((S)-1-methylpyrrolidin-2-yl)methoxy)quinazolin-7-yl)-3-fluorophenol]	0.0001 to 10	10 to 100

Further lines, results first:

IC50 [1] [µM]	IC50 [2] [µM]	Structure (SMILES)
0.0001 to 10	0.0001 to 10	CN1CC[C@@H](NS(=O)(=O)N2[C@@H]3CC[C@H]2CN(c2nc(OCC45CCCN4CCC5)nc4c(F)c(-c5cc(O)cc6ccccc56)ccc24)C3)C1 [P-0282, (1R,5S)-3-(8-fluoro-7-(3-hydroxynaphthalen-1-yl)-2-((tetrahydro-1H-pyrrolizin-7a(5H)-yl)methoxy)quinazolin-4-yl)-N-((R)-1-methylpyrrolidin-3-yl)-3,8-diazabicyclo[3.2.1]octane-8-sulfonamide]
10 to 100	10 to 100	Cc1c(N)cccc1-c1ccc2c(N3[C@@H]4CC[C@H]3CNC4)nc(OC[C@@H]3CCCN3C)nc2c1 [P-0286, 3-(4-((1R,5S)-3,8-diazabicyclo[3.2.1]octan-8-yl)-2-(((S)-1-methylpyrrolidin-2-yl)methoxy)quinazolin-7-yl)-2-methylaniline]
10 to 100	10 to 100	Cc1cccc(N)c1-c1ccc2c(N3[C@@H]4CC[C@H]3CNC4)nc(OC[C@@H]3CCCN3C)nc2c1 [P-0291, 2-(4-((1R,5S)-3,8-diazabicyclo[3.2.1]octan-8-yl)-2-(((S)-1-methylpyrrolidin-2-yl)methoxy)quinazolin-7-yl)-3-methylaniline]
0.0001 to 10	10 to 100	CN1CCC[C@H]1COc1nc(N2C[C@H]3CC[C@@H](C2)N3)c2ccc(-c3c[nH]c4ccccc34)c(F)c2n1 [P-0293, 4-((1R,5S)-3,8-diazabicyclo[3.2.1]octan-3-yl)-8-fluoro-7-(1H-indol-3-yl)-2-(((S)-1-methylpyrrolidin-2-yl)methoxy)quinazoline]
0.0001 to 10	10 to 100	CN1CCC[C@H]1COc1nc(N2CC3CCCC2CN3)c2ccc(-c3cc(O)cc4ccccc34)c(F)c2n1 (stereo partly drawn) [P-0296, 4-(4-(6,8-diazabicyclo[3.2.2]nonan-6-yl)-8-fluoro-2-(((S)-1-methylpyrrolidin-2-yl)methoxy)quinazolin-7-yl)naphthalen-2-ol]
0.0001 to 10	0.0001 to 10	Oc1cc(-c2ccc3c(N4[C@@H]5CC[C@H]4CNC5)nc(Cc4ccncc4)nc3c2)c2ccccc2c1 [P-0301, 4-(4-((1R,5S)-3,8-diazabicyclo[3.2.1]octan-8-yl)-2-(pyridin-4-ylmethyl)quinazolin-7-yl)naphthalen-2-ol]
0.0001 to 10	10 to 100	Cc1ccc2[nH]ncc2c1-c1c(F)cc2c(N3C[C@H]4CC[C@@H](C3)N4)nc(OC[C@@H]3CCCN3C)nc2c1F [P-0303, 4-((1R,5S)-3,8-diazabicyclo[3.2.1]octan-3-yl)-6,8-difluoro-7-(5-methyl-1H-indazol-4-yl)-2-(((S)-1-methylpyrrolidin-2-yl)methoxy)quinazoline]
10 to 100	10 to 100	CN1CCC[C@H]1COc1nc(N2[C@@H]3CC[C@H]2CNC3)c2ccc(-c3cc(CO)cc4ccccc34)cc2n1 [P-0304, (4-(4-((1R,5S)-3,8-diazabicyclo[3.2.1]octan-8-yl)-2-(((S)-1-methylpyrrolidin-2-yl)methoxy)quinazolin-7-yl)naphthalen-2-yl)methanol]
